Assay results as given in patent US5677419A, “Cyclic vasoactive peptide analogs” (Hoffmann-La Roche Inc., priority 1994, dated 1997).
Where a SMILES comes first, the peptide text is derived from it. Bridges are numbered along the chain shown (N, C = ends). [ ]: non-standard residue; d: D form. Phe(4-NH2) = Nc1ccc(C[C@H](N)C(=O)O)cc1; Phe(4-F) = N[C@@H](Cc1ccc(F)cc1)C(=O)O; Nle = CCCC[C@H](N)C(=O)O; Orn = NCCC[C@H](N)C(=O)O

Experiments:
[1] = tested on: guinea pig tracheal smooth muscle; assay: Tracheal relaxant activity of VIP analogs on isolated guinea pig tracheal rings; assay type: cell-based; conditions: cumulative concentration response, relaxation as % of maximum response to VIP (10^-6 M=100%), three tissues pooled, linear regression
Experimental: The relaxant activity of the VIP analogs were studied in a model utilizing guinea pig trachea. [Wasserman, M. A. et al., in Vasoactive Intestinal Peptide, S. I. Said, ed., Raven Press, New York 1982, pp 177-184] All tissues were taken from male albino guinea pig weighing 400-600 g, anesthetized with urethane (2 g/kg, i.p.). After exanguination, the trachea were removed and divided into four ring segments (3 mm length). Each ring was suspended by 30 gauge stainless steel wires in a 10 mL jacketed tissue bath and attached via 4-0 silk thread to a GRASS force displacement transducer (model FT03C, Grass Instruments Co., Quincy, Mass.), for isometric recording of tension. The smooth muscle was bathed in modified Krebs solution of the following composition: NaCl, 120 mM; KCl, 4.7 mM; CaCl2, 2.5 mM; MgSO4.7H2 O, 1.2 mM; NaHCO3, 25 mM; K2 HPO4 monobasic, 1.2 mM; and dextrose, 10 mM. Tissue baths were maintained at 37° C. and constantly bubbled with 95% O2 and 5% CO2. Responses were recorded on an 8 channel and a 4 channel HEWLETT-PACKARD (model 7702B and 7754A, respectively) recorder (Hewlett- Packard, Paramus, N.J.). Tracheal rings were placed under a resting tension of 1.5 g which was determined to be at or near optimal in preliminary experiments. Frequent readjustments of tension were required during the 60 minute stabilization period which followed. Tissues were rinsed at 15 minute intervals.
Cumulative concentration response curves were obtained for each tissue by successive […] increases in the bath concentration of VIP or VIP analogs according to the method of VanRossum [Arch. Int. Pharmacodyn., 143, 299-330 (1963)]. Only one cumulative dose response curve was obtained on a single tissue. To minimize variability between tissues, relaxant responses were expressed as a percentage of the maximum response obtained to VIP (10^-6 M=100%) added at the end of each concentration response experiment. Responses obtained from three tissues were pooled and EC50 values were determined by linear regression.
The results summarized in Table I show the tracheal relaxant activity of the VIP analogs in comparison to native VIP.

guinea pigs = assay: In vivo bronchodilator activity by tracheal instillation against histamine challenge; parameters: species or system guinea pig; conditions: anesthetized male guinea pigs, inhibition of histamine (i.v.)-induced rise in tracheal pressure
Experimental: The in vivo bronchodilator activity of VIP and VIP analogs in guinea pigs was assessed by the tracheal instillation route of administration. This technique utilized male guinea pigs (Hartley strain, Charles River) weighing 400-600 g. Animals were anesthetized with urethane (2 g/kg) intraperitoneally and a polyethylene cannula was inserted into the jugular vein for intraveneous drug administration.
The animals were tracheotomized and dosing solutions of distilled water or test compound dissolved in distilled water were administered into the trachea, approximately three-quarters the distance to the carina with a pipette. The concentration of the dosing solution was adjusted to deliver a constant volume of […]. The animals were placed supine for one minute to aid drug delivery to the lung. One minute later, spontaneous breathing was arrested with succinylcholine chloride (1.2 mg/kg) administered intraveneously, and the animals were ventilated with a HARVARD Model 680 small animal respirator set at 40 breaths/min and 4.0 cm^3 stroke volume. The animals were challenged with a maximal constrictory dose of histamine ([…], i.v.) and tracheal pressure (cm of water) was recorded from a STATHAM pressure transducer (P 32 AA).
The change in tracheal pressure was averaged for at least 3 control and 3 drug-treated animals and percent inhibition was calculated. The relative potency of compounds administered by the instillation route was determined by administering various doses of test compound and calculating the median effective dose (ED50 value). The ED50 was determined from log dose-response curves generated by at least 3 doses that caused inhibitory effects between 10% and 90%. The correlation coefficients for the regression line of each compound was always greater than 0.95.
For determination of the time course of inhibition for various compounds, the time between administration of compound and challenge with histamine was varied. The time course of activity was calculated as the time when inhibition decreased to 40%.
The results summarized in Table II show the in vivo bronchodilator activity of the VIP analogs in comparison to native VIP.

EC50 [1] [nM] | SMILES | Bronchodilator activity of VIP analogs in guinea pigs, ED50 (guinea pigs) [μg]
14 | CCCC[C@H](NC(=O)[C@H](CCC(N)=O)NC(=O)[C@H](CCCCN)NC(=O)[C@H](CCCNC(=N)N)NC(=O)[C@H](CC(C)C)NC(=O)[C@@H]1CCCCNC(=O)C[C@H](NC(=O)[C@@H](NC(=O)[C@H](Cc2ccccc2)NC(=O)[C@@H](NC(=O)[C@H](C)NC(=O)[C@H](CC(=O)O)NC(=O)[C@H](CO)NC(=O)[C@H](Cc2c[nH]cn2)NC(C)=O)C(C)C)[C@@H](C)O)C(=O)N[C@@H](CC(N)=O)C(=O)N[C@@H](Cc2ccc(O)cc2)C(=O)N[C@@H]([C@@H](C)O)C(=O)N1)C(=O)N[C@@H](C)C(=O)N[C@H](C(=O)N[C@@H](CCCCN)C(=O)N[C@@H](CCCCN)C(=O)N[C@@H](Cc1ccc(O)cc1)C(=O)N[C@@H](CC(C)C)C(=O)N[C@@H](CC(N)=O)C(=O)N[C@@H](CO)C(=O)N[C@H](C(=O)N[C@@H](CC(C)C)C(=O)N[C@H](C(N)=O)[C@@H](C)O)C(C)C)C(C)C [SEQ ID NO:20, Ac-[Lys^12,Nle^17,Val^26,Thr^28]-VIP cyclo (Asp^8 →Lys^12)] (Ac-HSDAVFTDNYTKLRKQ[Nle]AVKKYLNSVLT-NH2; lactam 8-12) | –
4.4 | CCCC[C@H](NC(=O)[C@H](CCC(N)=O)NC(=O)[C@H](CCCCN)NC(=O)[C@H](CCCNC(=N)N)NC(=O)[C@H](CC(C)C)NC(=O)[C@H](CC(C)C)NC(=O)[C@@H](NC(=O)[C@H](Cc1ccc(N)cc1)NC(=O)[C@H](CC(N)=O)NC(=O)[C@H](CC(=O)O)NC(=O)[C@@H](NC(=O)[C@H](Cc1ccc(F)cc1)NC(=O)[C@@H](NC(=O)[C@H](C)NC(=O)[C@H](CC(=O)O)NC(=O)[C@H](CO)NC(=O)[C@H](Cc1c[nH]cn1)NC(C)=O)C(C)C)[C@@H](C)O)[C@@H](C)O)C(=O)N[C@@H](C)C(=O)N[C@@H](C)C(=O)N[C@@H](CCCCN)C(=O)N[C@H]1CCCCNC(=O)C[C@@H](C(=O)N[C@H](C(=O)N[C@@H](CC(C)C)C(=O)N[C@H](C(N)=O)[C@@H](C)O)C(C)C)NC(=O)[C@H](CC(N)=O)NC(=O)[C@H](CC(C)C)NC(=O)[C@H](Cc2ccc(O)cc2)NC1=O [SEQ ID NO:37, Ac-[p-F-Phe^6,p-NH2 -Phe^10,Leu^12,Nle^17,Ala^19,Asp^25,Val^26,Thr^28]-VIP cyclo (Lys^21 →Asp^25)] (Ac-HSDAV[Phe(4-F)]TDN[Phe(4-NH2)]TLLRKQ[Nle]AAKKYLNDVLT-NH2; lactam 21-25) | –
0.9 | CCCC[C@H](NC(=O)[C@H](C)NC(=O)[C@H](CCCCN)NC(=O)[C@H](CCCNC(=N)N)NC(=O)[C@H](CC(C)C)NC(=O)[C@H](CCCCN)NC(=O)[C@@H](NC(=O)[C@H](Cc1ccc(O)cc1)NC(=O)[C@H](CC(N)=O)NC(=O)[C@H](CCC(=O)O)NC(=O)[C@@H](NC(=O)[C@H](Cc1ccccc1)NC(=O)[C@@H](NC(=O)[C@H](C)NC(=O)[C@H](CC(=O)O)NC(=O)[C@H](CO)NC(=O)[C@H](Cc1c[nH]cn1)NC(C)=O)C(C)C)[C@@H](C)O)[C@@H](C)O)C(=O)N[C@@H](C)C(=O)N[C@@H](C)C(=O)N[C@@H](CCCCN)C(=O)N[C@H]1CCCCNC(=O)C[C@@H](C(=O)N[C@@H](CC(C)C)C(=O)N[C@@H](CCCCN)C(=O)N[C@@H](CCCCN)C(N)=O)NC(=O)[C@H](CC(N)=O)NC(=O)[C@H](CC(C)C)NC(=O)[C@H](Cc2ccc(O)cc2)NC1=O [SEQ ID NO:63, Ac-[Glu^8,Lys^12,Ala^16,Nle^17,Ala^19,Asp^25,Leu^26,Lys^27,28]-VIP cyclo (Lys^21 →Asp^25)] (Ac-HSDAVFTENYTKLRKA[Nle]AAKKYLNDLKK-NH2; lactam 21-25) | –
16 | CCCC[C@H](NC(=O)[C@H](CCC(N)=O)NC(=O)[C@H](CCCCN)NC(=O)[C@H](CCCNC(=N)N)NC(=O)[C@H](CC(C)C)NC(=O)[C@@H]1CCCNC(=O)CC[C@H](NC(=O)[C@@H](NC(=O)[C@H](Cc2ccccc2)NC(=O)[C@@H](NC(=O)[C@H](C)NC(=O)[C@H](CC(=O)O)NC(=O)[C@H](CO)NC(=O)[C@H](Cc2c[nH]cn2)NC(C)=O)C(C)C)[C@@H](C)O)C(=O)N[C@@H](CC(N)=O)C(=O)N[C@@H](Cc2ccc(O)cc2)C(=O)N[C@@H]([C@@H](C)O)C(=O)N1)C(=O)N[C@@H](C)C(=O)N[C@H](C(=O)N[C@@H](CCCCN)C(=O)N[C@@H](CCCCN)C(=O)N[C@@H](Cc1ccc(O)cc1)C(=O)N[C@@H](CC(C)C)C(=O)N[C@@H](CC(N)=O)C(=O)N[C@@H](CO)C(=O)N[C@H](C(=O)N[C@@H](CC(C)C)C(=O)N[C@H](C(N)=O)[C@@H](C)O)C(C)C)C(C)C [SEQ ID NO:25, Ac-[Glu^8,Orn^12,Nle^17,Val^26,Thr^28]-VIP cyclo (Glu^8 →Orn^12)] (Ac-HSDAVFTENYT[Orn]LRKQ[Nle]AVKKYLNSVLT-NH2; lactam 8-12) | –

SMILES | EC50 [1] [nM] | Bronchodilator activity of VIP analogs in guinea pigs, ED50 (guinea pigs) [μg]
CC[C@H](C)[C@H](NC(=O)[C@H](CO)NC(=O)[C@H](CC(N)=O)NC(=O)[C@H](CC(C)C)NC(=O)[C@H](Cc1ccc(O)cc1)NC(=O)[C@H](CCCCN)NC(=O)[C@H](CCCCN)NC(=O)[C@@H](NC(=O)[C@H](C)NC(=O)[C@H](CCSC)NC(=O)[C@H](CCC(N)=O)NC(=O)[C@H](CCCCN)NC(=O)[C@H](CCCNC(=N)N)NC(=O)[C@H](CC(C)C)NC(=O)[C@H](CCCNC(=N)N)NC(=O)[C@@H](NC(=O)[C@H](Cc1ccc(O)cc1)NC(=O)[C@H](CC(N)=O)NC(=O)[C@H](CC(=O)O)NC(=O)[C@@H](NC(=O)[C@H](Cc1ccccc1)NC(=O)[C@@H](NC(=O)[C@H](C)NC(=O)[C@H](CC(=O)O)NC(=O)[C@H](CO)NC(=O)[C@@H](N)Cc1c[nH]cn1)C(C)C)[C@@H](C)O)[C@@H](C)O)C(C)C)C(=O)N[C@@H](CC(C)C)C(=O)N[C@@H](CC(N)=O)C(N)=O [VIP, Vasoactive intestinal peptide, reference compound] | 10 | 7.3
CCCC[C@H](NC(=O)[C@H](CCC(N)=O)NC(=O)[C@H](CCCCN)NC(=O)[C@H](CCCNC(=N)N)NC(=O)[C@H](CC(C)C)NC(=O)[C@H](CCCCN)NC(=O)[C@@H](NC(=O)[C@H](Cc1ccc(O)cc1)NC(=O)[C@H](CC(N)=O)NC(=O)[C@H](CCC(=O)O)NC(=O)[C@@H](NC(=O)[C@H](Cc1ccccc1)NC(=O)[C@@H](NC(=O)[C@H](C)NC(=O)[C@H](CC(=O)O)NC(=O)[C@H](CO)NC(=O)[C@H](Cc1c[nH]cn1)NC(C)=O)C(C)C)[C@@H](C)O)[C@@H](C)O)C(=O)N[C@@H](C)C(=O)N[C@@H](C)C(=O)N[C@@H](CCCCN)C(=O)N[C@H]1CCCCNC(=O)C[C@@H](C(=O)N[C@H](C(=O)N[C@@H](CC(C)C)C(=O)N[C@H](C(=O)NCC(=O)NCC(=O)N[C@H](C(N)=O)[C@@H](C)O)[C@@H](C)O)C(C)C)NC(=O)[C@H](CC(N)=O)NC(=O)[C@H](CC(C)C)NC(=O)[C@H](Cc2ccc(O)cc2)NC1=O [SEQ ID NO:65, Ac-[Glu^8,Lys^12,Nle^17,Ala^19,Asp^25,Val^26,Thr^28,Gly^29,30,Thr^31]-VIP cyclo (Lys^21 →Asp^25)] (Ac-HSDAVFTENYTKLRKQ[Nle]AAKKYLNDVLTGGT-NH2; lactam 21-25) | 0.88 | 0.84
